Legend:
[1] = system: C28/I2 cells; assay: Protein and mRNA expression in C28/I2 chondrocyte cells; format: cell-based, human
Source text: (§1) Cell culture and reagents. The mouse chondrogenic cell line, ATDC5, was obtained from the RIKEN Cell Batik. The human juvenile costal chondrocyte cell line, C28/I2, was provided by Dr. W. U. Kim (Catholic University, Korea). HEK293-TOP cells (HEK293 cells containing the chromosomally incorporated TOPFlash gene) were provided by Dr. S. Oh (Kuk Min University, Korea). ATDCS cells were maintained in DMEM/F12 (1:1) (Gibco, Grand Island, N.Y.) supplemented with 5% FBS (Gibco). To induce hypertrophic differentiation, ATDC5 cells were incubated with insulin-transferrin-sodium selenite (ITS) supplement (Gibco) in three-dimensional alginate beads for 3 days, as previously described. See e.g., Kawasaki Y. et al. (2008), Phosphorylation of GSK-3beta by cGMP-dependent protein kinase II promotes hypertrophic differentiation of murine chondrocytes. J CLIN INVEST 118: 2506-2515. C28/I2 and HEK293-TOP cells were maintained in DMEM (Gibco) containing 10% FBS. All chemicals were dissolved in dimethyl sulfoxide (DMSO; Sigma-Aldrich, St Louis, Mo.) for the in vitro studies. For E2 (17β-estradiol; Sigma-Aldrich) treatment, cells were cultured in phenol red-free DMEM/F12 with 5% charcoal-stripped FBS for 24 hours followed by serum-free medium for 24 hours before the experiment. The PTD-DBMP was synthesized by Peptide 2.0 Inc (Chantilly, Va.).
Immunocytochemistry. ATDCS or C28/I2 cells were seeded on glass coverslip in 12-well culture plates. The cells were washed with PBS and fixed with 4% PFA at room temperature for 15 minutes. After permeabilization with 0.1% triton-X-100 for 15 minutes and blocking with 5% BSA for 1 hour, the cells were incubated with primary antibodies specific for β-catenin (1:100) or CXXC5 l (1:200) at 4° C. overnight. […]
Immunoblot analyses. […] Immunoblot bands were analyzed using Multi-Gauge V3.0 software (Fujifilm). Points of interest (POIs) from immunoblot bands were marked and quantified using densitometry, and the background signals were subtracted from respective immunoblot signals. […]
Reverse transcription and quantitative real-time PCR. […]

[2] = molecular target: GSK3β (human) (Homo sapiens, UniProt P49841); assay: GSK3β kinase assay; format: biochemical; conditions: from dose-response curve, FIG. 4C; read-out: IC50, in vitro GSK3β activity
GSK3β (human), sequence (P49841 whole entry): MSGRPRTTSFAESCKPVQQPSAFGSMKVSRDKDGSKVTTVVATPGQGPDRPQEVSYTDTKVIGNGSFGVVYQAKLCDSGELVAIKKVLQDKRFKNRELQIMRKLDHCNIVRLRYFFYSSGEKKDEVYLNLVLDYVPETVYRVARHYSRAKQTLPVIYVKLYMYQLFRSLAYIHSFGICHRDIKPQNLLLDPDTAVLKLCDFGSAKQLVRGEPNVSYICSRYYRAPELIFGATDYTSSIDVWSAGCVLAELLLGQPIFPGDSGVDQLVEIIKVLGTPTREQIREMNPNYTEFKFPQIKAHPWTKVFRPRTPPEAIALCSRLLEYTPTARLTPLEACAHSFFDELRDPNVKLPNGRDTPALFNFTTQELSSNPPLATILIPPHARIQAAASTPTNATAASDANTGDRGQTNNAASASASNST
Description: GSK3β kinase assay. GSK3β (human) was incubated with 8 mM MOPS (pH 7.0), 0.2 mM EDTA, 20 μM […](p) EDEEE (phospho-GS2 peptide) (SEQ ID NO. 37), 10 mM Mg acetate, and [γ-33P-ATP] (specific activity approx. 500 cpm/pmol, concentration as required). The reaction was initiated by the addition of the Mg-ATP mixture. After incubation for 40 minutes at room temperature, the reaction was stopped by addition of 3% phosphoric acid solution. 10 μl of the reaction was then spatted onto a P30 filtermat and washed three times for 5 minutes in 50 mM phosphoric acid and once in methanol prior to drying and scintillation counting.

[3] = system: TOPFlash Wnt reporter activity; assay: TOPFlash Wnt reporter assay in HEK293-TOP cells; format: cell-based; conditions: 18 hours, FIG. 4D
Description: Reporter assay. HEK293-TOP cells were seeded into each well of a 24-well plate. The cells were treated with individual compounds at indicated concentration and cultured for 18 hours. The cells were then harvested and lysed in 60 μl of Reporter Lysis Buffer (Promega, Madison, Wis.) according to the manufacturer's instructions. After centrifugation, 20 μl of the supernatant was used to measure luciferase activity. Relative luciferase activities were normalized to that of the DMSO-treated control.

[4] = molecular target: T1, CXXC5-DVL interaction (Homo sapiens, UniProt O14640); assay: In vitro CXXC5-DVL binding assay (FITC-tagged PTD-DBMP on DVL PDZ domain); conditions: from dose-response curve, FIG. 4B
T1 construct: 5 mg/ml purified DVL PDZ domain was incubated in each well
T1 sequence (O14640 251-323 limits assumed): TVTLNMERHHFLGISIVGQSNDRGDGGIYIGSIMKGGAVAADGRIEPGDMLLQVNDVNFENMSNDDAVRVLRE

[5] = system: ATDC5 cells; assay: Wnt/β-catenin signaling, proliferation and differentiation in ATDC5 chondrogenic cells; format: cell-based, mouse
Source text: as §1
Immunocytochemistry. ATDCS or C28/I2 cells were seeded on glass coverslip in 12-well culture plates. The cells were washed with PBS and fixed with 4% PFA at room temperature for 15 minutes. After permeabilization with 0.1% triton-X-100 for 15 minutes and blocking with 5% BSA for 1 hour, the cells were incubated with primary antibodies specific for β-catenin (1:100) or CXXC5 l (1:200) at 4° C. overnight. The cells were washed in PBS and incubated with Alexa Fluor 488 or Alexa Fluor 555 secondary antibodies (1:200) at room temperature for 1 hour. Cell nuclei were counterstained with DAPI for 10 minutes and the stained samples were examined under a LSM700 META microscope using 405-, 488-, or 543-nm excitation wavelengths. For BrdU assay, cultured cells were incubated with BrdU solution (25 μM) overnight, followed by immunocytochemical staining with antibody against BrdU (1:100).
Immunoblot analyses. […] Protein samples were separated on a 8-12% sodium dodecylsulfate polyacrylamide gel electrophoresis (SDS-PAGE) and transferred to a nitrocellulose membrane (Whatman). Immunoblotting was performed with the following primary antibodies: anti-β-catenin (Santa Cruz Biotechnology, Santa Cruz, Calif., sc-7199; 1:3,000), anti-CXXC5 (lab made;1:200) anti-Myc tag (MBL, Aichi, Japan, M192-3; 1:1,000), anti-FLAG (Sigma-Aldrich, F7425; 1:1,000), anti-p-GSK3β (S9; Cell Signaling Technology, Danvers, Mass., 9336S; 1:1,000), anti-COL2A1 (Santa Cruz Biotechnology, sc-28887; 1:500), anti-RUNX2 (Abcam, ab23981; 1:500), anti-COLIOAI (Cosmo Bio, LSL-LB-0092; 1:500), anti-MMP13 (Santa Cruz Biotechnology, sc-30073; 1:500), anti-ERK (Santa Cruz Biotechnology, sc-94; 1:3,000) and anti-α-tubulin (Cell Signaling Technology, 3873S; 1:20,000). Samples were then incubated with horseradish-peroxidase-conjugated anti-mouse (Cell Signaling Technology, 7076; 1:3,000), anti-rabbit (Bio-Rad, 1706515; 1:3,000), or anti-goat (Santa Cruz Biotechnology; sc-2020; 1:3,000) secondary antibodies. Protein bands were visualized with enhanced chemiluminescence (ECL; Amersham Bioscience, Piscataway, N.J.) using a luminescent image analyzer, LAS-3000 (Fujifilm, Tokyo, Japan). Immunoblot bands were analyzed using Multi-Gauge V3.0 software (Fujifilm). Points of interest (POIs) from immunoblot bands were marked and quantified using densitometry, and the background signals were subtracted from respective immunoblot signals. Relative densitometry values were presented as the intensity ratios of each protein to loading control protein (α-tubulin or ERK).
Immunoprecipitation. Immunoprecipitation was performed as previously described (Kim et al, 2015). […]

[6] = ATDC5 cells, 0.01 or 0.1 μM, 4 hours, FIG. 12

Compound	expression of CXXC5 ([1]; 100 nM, 0-72 hours, FIG. 2A)	β-catenin level ([1]; 100 nM, following 24 hours)	IC50 [2] [nM]	TOPFlash Wnt reporter activity [3]	IC50 [4] [nM]	number of BrdU-positive ATDC5 cells ([5]; 0.01 or 0.1 μM, 48 hours, FIG. 11A)	CXXC5-DVL interaction, immunoprecipitation ([5]; ATDC5 cells, 0.1 μM, 4 hours, FIG. 4F)	nuclear translocation of β-catenin ([5]; ATDC5 cells, 0.1 μM, 48 hours, FIG. 4G)	mRNA levels of chondrogenic markers ([5]; ATDC5 cells, 0.1 μM, 3 days, alginate beads, FIG. 11B)	expression levels of Wnt/β-catenin target genes (Fosl1, Wisp1, Axin2) [5, 6]	off-target effects: 19 other genes that respond to other pathways, mRNA [5, 6]	β-catenin level with inactivation of GSK3β, immunoblot ([5]; ATDC5 cells, 24 hours, FIG. 4E)	mRNA levels of chondrogenic markers ([1]; 1 μM, 3 days, alginate beads, FIG. 11C)
17β-estradiol [Compound E2]	induced expression of CXXC5 in a time-dependent manner	reduced											
CO/N=C1/C(=C2/C(=O)Nc3cc(Cl)c(Cl)cc32)Nc2ccccc21 [KY19382, 5,6-dichloroindirubin-3′-methoxime]			10	strong enhancement	19	enhanced number	interruption of the CXXC5-DVL interaction	elevated	upregulated	markedly increased	not significantly altered	increment of β-catenin	upregulated
